Laboratory results published in PMC8151276, “An Integrated Approach toward NanoBRET Tracers for Analysis of GPCR Ligand Engagement” (Molecules, 2021).

How the values were obtained:
TACR2 = biological target: T1, TACR2 (Homo sapiens, UniProt P21452); test: NanoBRET screen HiBiT-TACR2 in HEK293; format: binding
T1 construct: purchased Promega (in-house HiBiT-GPCR construct library, NanoBRET)
T1 sequence (P21452 1-398): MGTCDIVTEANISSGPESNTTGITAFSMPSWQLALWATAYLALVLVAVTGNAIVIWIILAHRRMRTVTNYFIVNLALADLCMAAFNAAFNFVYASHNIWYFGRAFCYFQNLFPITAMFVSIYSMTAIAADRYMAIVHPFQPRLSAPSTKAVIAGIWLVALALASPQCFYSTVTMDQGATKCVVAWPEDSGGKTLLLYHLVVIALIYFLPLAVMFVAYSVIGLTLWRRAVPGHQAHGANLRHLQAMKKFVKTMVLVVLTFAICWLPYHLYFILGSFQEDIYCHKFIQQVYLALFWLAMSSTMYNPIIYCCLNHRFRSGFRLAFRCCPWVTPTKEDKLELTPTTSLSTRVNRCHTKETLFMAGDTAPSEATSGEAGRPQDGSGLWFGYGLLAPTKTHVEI
Protocol: (§1) Each tracer candidate was screened across the entire library of HiBiT-GPCR constructs using NanoBRET as the detection modality. As depicted in Figure 4A, the specificity of interactions was evaluated through decrease in BRET due to competitive displacement of a bound tracer by excess parental compound. Each tracer was analyzed for binding to each HiBiT-GPCR fusion in the absence and in the presence of competing parental compound. Briefly, HEK293 cells were transfected with HiBiT-GPCR constructs diluted into promoterless DNA to reduce expression and maximize translocation to the cell surface. Each tracer candidate was then screened at concentrations of 1 μM and 0.1 μM across cells expressing these fusions. Cells were treated for 1.5 h with tracer either alone or in the presence of 20 μM competing parental compound (i.e., control). BRET was measured upon addition of purified LgBiT and subsequent complementation with HiBiT genetically fused to a GPCR. The specificity of interactions was assessed through a decrease in BRET signal due to competitive displacement of the bound tracer. To further gauge the robustness of these interactions, the fold response over the control (i.e., BRETtracer/BRETcontrol) was calculated. We chose a 1.5-fold response, which translates to ≥7-fold signal over noise as the minimal threshold required to score an interaction as positive. […]. Below we highlight the screening results obtained for our exemplary fluorescent tracers based on Clozapine, Amitriptyline and AZD1283.
(§2) HiBiT-GPCR DNA constructs were diluted in 10 mM Tris pH 8 to a final concentration of 0.01 μg/μL, arrayed in 96-well plates and stored at −20 °C. For transfection, HEK293 cells were suspended in Opti-MEM (without phenol red) supplemented with 2% fetal bovine serum (Seradigm) and 100 units/mL penicillin–streptomycin (Gibco) at a final concentration of 220,000 cells/mL and dispensed into white 96-well plates at 90 μL/well. Subsequent transfections and screens were carried using an Agilent Bravo Automated Liquid Handling Platform. First, the 96-well HiBiT DNA arrays were diluted 25-fold in Opti-MEM (without serum or phenol red) to a final concentration of 0.0004 μg/μL and 20 μL of the diluted DNAs were transferred into new 96-well plates. Next, promoterless carrier DNA (1 μg/μL) was diluted 25-fold (0.04 μg/μL) and then dispensed into the diluted arrays at 20 μL/well. Following brief mixing, Viafect transfection reagent (Promega) diluted 16-fold into Opti-MEM was dispensed into the plates at 40 μL/well. After mixing by pipetting, plates were incubated for 10 min on the pipetting station deck. The DNA-transfection reagent complexes were then added to plates containing cells. To facilitate the screen, 10 μL of DNA-transfection reagent complexes were added in duplicates to the top 4 and bottom 4 rows, resulting in two identical 48-well arrays per plate. Plates with transfected cells were incubated for 18–20 h at 37 °C/5% CO2. A screen of each tracer across the entire library using two different concentrations requires duplicate plates of transfected cells. Depending on the number of tracers being screened, transfections can be scaled up using the same ratios. The next day, for each tracer, four 20× screening solutions in tracer dilution buffer (Promega) were prepared: two duplicates at final concentration of 20 μM and two duplicates at a final concentration of 2 μM. A competing unmodified compound was added to one of each duplicate at a final concentration of 400 μM. The four resulting solutions were diluted 4-fold in Opti-MEM without serum or phenol red to generate 5× solutions (5 µM and 0.5 µM tracer +/− 100 μM competing compound). To screen the library, a BioTek MultiFlo FX liquid dispenser was used to dispense 22.5 µL of tracer solution to the top 4 rows and 22.5 µL tracer + competing compound solution to the 4 bottom rows. Plates were briefly mixed on an orbital shaker and incubated for 1.5 h at room temperature. […]

C5AR1 = biological target: T2, C5AR1 (Homo sapiens, UniProt P21730); test: NanoBRET screen HiBiT-C5AR1 in HEK293; format: binding
T2 construct: purchased Promega (in-house HiBiT-GPCR construct library, NanoBRET)
T2 sequence (P21730 1-350): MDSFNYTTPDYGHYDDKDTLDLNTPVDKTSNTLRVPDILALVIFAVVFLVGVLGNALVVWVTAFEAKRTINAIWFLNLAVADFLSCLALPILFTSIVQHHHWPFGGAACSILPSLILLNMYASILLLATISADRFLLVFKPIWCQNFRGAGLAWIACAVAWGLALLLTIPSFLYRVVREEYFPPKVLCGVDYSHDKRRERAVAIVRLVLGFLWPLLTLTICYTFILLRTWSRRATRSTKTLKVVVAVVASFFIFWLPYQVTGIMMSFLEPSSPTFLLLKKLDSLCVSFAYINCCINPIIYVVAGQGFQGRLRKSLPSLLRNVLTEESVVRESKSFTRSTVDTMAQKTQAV
Protocol: as §1, §2

[1] = tracer at 0.1μM, listed as amitriptyline-b-2-NB590

Compound: CCOC(=O)c1cc(C#N)c(N2CCC(C(=O)NS(=O)(=O)Cc3ccccc3/C=C/C(=O)NCCNC(=O)CCc3ccc4n3[B-](F)(F)[N+]3=C(c5ccc[nH]5)C=CC3=C4)CC2)nc1C [AZD1283-1-NB590]
- NanoBRET Fold Response (TACR2; TACR2, 0.1μM): 1.09
- NanoBRET Fold Response (TACR2; TACR2, 1μM): 1.04
- NanoBRET Fold Response (C5AR1; C5AR1, 0.1μM): 1.07
- NanoBRET Fold Response (C5AR1; C5AR1, 1μM): 1.07

Compound: N#CN=C(NCCCOc1cccc(CN2CCCCC2)c1)NCCNC(=O)CCOCCOCCOCCOCCNC(=O)CCc1ccc2n1[B-](F)(F)[N+]1=C(c3ccc[nH]3)C=CC1=C2 [Aminopotentidine-2-NB590]
- NanoBRET Fold Response (TACR2; TACR2, tracer 0.1μM): 0.98
- NanoBRET Fold Response (TACR2; TACR2, tracer 1μM): 1.02
- NanoBRET Fold Response (C5AR1; C5AR1, tracer 0.1μM): 0.99
- NanoBRET Fold Response (C5AR1; C5AR1, tracer 1μM): 0.98

Compound: CN(C)CCC=C1c2ccccc2CCc2ccc(C(=O)NCCNC(=O)CCOCCOCCOCCOCCNC(=O)CCc3ccc4n3[B-](F)(F)[N+]3=C(c5ccc[nH]5)C=CC3=C4)cc21 [Amitriptyline-a-2-NB590]
- NanoBRET Fold Response (TACR2; tracer at 0.1μM): 1.10
- NanoBRET Fold Response (TACR2; tracer at 1μM): 1.13
- NanoBRET Fold Response (C5AR1; tracer at 0.1μM): 1.03
- NanoBRET Fold Response (C5AR1; tracer at 1μM): 1.01

Compound: CN(C)CCC=C1c2ccccc2CCc2ccc(C(=O)NCCNC(=O)CCOCCOCCOCCOCCNC(=O)CCc3ccc4n3[B-](F)(F)[N+]3=C(c5ccc[nH]5)C=CC3=C4)cc21 [Amitriptyline-b-2-NB590]
- NanoBRET Fold Response (TACR2; [1]): 0.86
- NanoBRET Fold Response (TACR2; tracer at 1μM, listed as amitriptyline-b-2-NB590): 1.17
- NanoBRET Fold Response (C5AR1; [1]): 1.01
- NanoBRET Fold Response (C5AR1; tracer at 1μM): 0.97

Compound: CN(CCC=C1c2ccccc2CCc2ccccc21)C(=O)CCOCCOCCOCCOCCNC(=O)CCc1ccc2n1[B-](F)(F)[N+]1=C(c3ccc[nH]3)C=CC1=C2 [Amitriptyline-e-2-NB590]
- NanoBRET Fold Response (C5AR1; tracer at 1μM): 1.02

Compound: COc1ccc2c(n1)c(CCNC(C)=O)cn2CCNC(=O)CCc1ccc2n1[B-](F)(F)[N+]1=C(c3ccc[nH]3)C=CC1=C2 [Azamelatonin-1-NB590]
- NanoBRET Fold Response (TACR2; 0.1μM tracer): 0.81
- NanoBRET Fold Response (TACR2; 1μM tracer): 0.91
- NanoBRET Fold Response (C5AR1; 0.1μM tracer): 0.90
- NanoBRET Fold Response (C5AR1; 1μM tracer): 0.94

Compound: COc1ccc2[nH]c(-c3ccc(CNC(=O)CCOCCOCCOCCOCCNC(=O)CCc4ccc5n4[B-](F)(F)[N+]4=C(c6ccc[nH]6)C=CC4=C5)cc3)c(CCNC(C)=O)c2n1 [AzomelatoninICO9-2-NB590]
- NanoBRET Fold Response (TACR2; 0.1μM tracer): 0.37
- NanoBRET Fold Response (TACR2; 1μM tracer): 0.84
- NanoBRET Fold Response (C5AR1; 0.1μM tracer): 0.99
- NanoBRET Fold Response (C5AR1; 1μM tracer): 0.98

Compound: O=C(CCOCCOCCOCCOCCNC(=O)CCc1ccc2n1[B-](F)(F)[N+]1=C(c3ccc[nH]3)C=CC1=C2)NCCCN1CCN(C2=Nc3cc(Cl)ccc3Nc3ccccc32)CC1 [Clozapine-a-2-NB590]
- NanoBRET Fold Response (TACR2; TACR2, 0.1μM tracer): 1.02
- NanoBRET Fold Response (TACR2; TACR2, 1μM tracer): 0.89
- NanoBRET Fold Response (C5AR1; C5AR1, 0.1μM tracer): 1.04
- NanoBRET Fold Response (C5AR1; C5AR1, 1μM tracer): 1.11

Compound: CN1CCN(C2=Nc3cc(Cl)ccc3Nc3ccc(CNC(=O)CCOCCOCCOCCOCCNC(=O)CCc4ccc5n4[B-](F)(F)[N+]4=C(c6ccc[nH]6)C=CC4=C5)cc32)CC1 [Clozapine-b-2-NB590]
- NanoBRET Fold Response (TACR2; TACR2, 0.1μM tracer): 0.97
- NanoBRET Fold Response (C5AR1; C5AR1, 0.1μM tracer): 0.98
- NanoBRET Fold Response (C5AR1; C5AR1, 1μM tracer): 1.02
